Positions of bridges follow the written chain, without caps; N, C: chain ends. Residues, ends and D or L forms follow the SMILES beside them. No end group written: not given here.
Experiments:
X. citri = assay: Bacterial growth inhibition by OD600 absorbance, X. citri; assay type: cell-based, X. citri subsp. citri (ATCC 49118); details: peptide 10 μM, 24 hours at 30° C., OD 600 nm
Protocol: (§1) Antimicrobial activity of antimicrobial peptides was tested against the agricultural microbial pests A. tumefaciens, E. amylovora, E. coli, and X. citri, using OD absorbance measurement to detect bacterial growth.
(§2) Antimicrobial peptides were synthesized using solid phase peptide synthesis method and resuspended in 10% DMSO to a 1 mM stock concentration. The stock solution was aliquoted in cryovials and stored at −80° C.
(§3) An aliquot of 198 μl of the bacterial culture was added to each well in a 96-well plate and 2 μl of a 1 mM peptide stock solution was added to each well, for a final treatment concentration of 10 μM of a given peptide. Media only wells were included to control for contamination. The positive controls were 50 μg/ml oxytetracycline hydrochloride and 500 μg/ml streptomycin sulfate. A 0.1% DMSO treatment was included as a negative control.
(§4) An initial absorbance reading of the bacterial suspensions was taken at 600 nm. Then, the bacteria were grown in an incubator at 30° C. (A. tumefaciens, E. amylovora, X. citri) or 37° C. (E. coli) for 24 hours, after which the final absorbance reading was measured. Using the initial and final absorbance reading compared to negative and positive controls, the percent inhibition of the bacterial strain by given peptide treatment was determined.

A. tumefaciens = details: 24 h, 10 μM
E. amylovora = details: 24 h, 10 μM
E. coli = assay: Bacterial growth inhibition by OD600 absorbance, E. coli; assay type: cell-based, E. coli (DH5-alpha); details: peptide 10 μM, 24 hours at 37° C., OD 600 nm
Protocol: as §1, §2, §3, §4

Molecule | growth inhibition, X. citri (X. citri) [%] | growth inhibition, A. tumefaciens (A. tumefaciens) [%] | growth inhibition, E. amylovora (E. amylovora) [%] | growth inhibition, E. coli (E. coli) [%]
GMWSKILGHLIR [compound 137] | <90 | <90 | 100.00 | <90
KWKLFKKIGPGKFLHSAKKF [compound 60] | <90 | <90 | <90 | <90
KKWRKWLAKKKKK [compound 101] | <90 | <90 | <90 | <90
KWKSFLKTFKSAKKTSLHTALKAISS [compound 26] | <90 | <90 | <90 | <90
KWLLKLKLKLLK [compound 125] | <90 | <90 | <90 | <90
FKKLKKLFSKLWNWK [compound 84] | <90 | 100.00 | 100.00 | 96.39
ILKKIWKPIKKLF [compound 109] | <90 | <90 | <90 | <90
FRIRVRVAKKFGKAFVGEIM [compound 64] | <90 | <90 | <90 | <90
KKAAAAAAAAAAAAWAAAAAAKKKK [compound 70] | <90 | <90 | <90 | <90
CC(C)C[C@H](NC(=O)[C@H](CCCCN)NC(=O)[C@H](C)NC(=O)[C@H](CC(C)C)NC(=O)[C@H](CCCCN)NC(=O)[C@H](CCCCN)NC(=O)[C@H](C)NC(=O)[C@H](CC(C)C)NC(=O)[C@H](CCCCN)NC(=O)[C@H](C)NC(=O)[C@H](CC(C)C)NC(=O)[C@H](CCCCN)NC(=O)[C@H](Cc1c[nH]cn1)NC(=O)[C@H](C)NC(=O)[C@@H](N)CC(=O)O)C(=O)N[C@@H](C)C(=O)N[C@@H](CCCCN)C(=O)O [compound 97] | <90 | <90 | <90 | <90
KLKKLLKKWLKLLKKLLK [compound 68] | <90 | <90 | <90 | 100.00
WKIKWKIKWKIK [compound 105] | <90 | <90 | <90 | <90
KWLKKWLKWLKK [compound 102] | <90 | 100.00 | 100.00 | 100.00
AAKAWLKLWAKAA [compound 135] | <90 | <90 | <90 | <90
KKLLKLKLKWKK [compound 121] | 100.00 | <90 | <90 | <90
ALWKKLLKKLLKSAKKLG [compound 77] | 100.00 | 100.00 | 100.00 | 100.00
VRVKVRVKVRVK [compound 131] | <90 | <90 | 100.00 | 99.54
NAGSLLSGWG [compound 144] | <90 | <90 | <90 | <90
INWLKIAKKVKGML [compound 111] | 100.00 | <90 | 100.00 | <90

Molecule | growth inhibition, X. citri (X. citri) [%] | growth inhibition, A. tumefaciens (A. tumefaciens) [%] | growth inhibition, E. amylovora (E. amylovora) [%] | growth inhibition, E. coli (E. coli) [%]
GWGDTFLKTMAKIAKVGPKLLHS [compound 48] | <90 | <90 | <90 | <90
VKLVYPLKVKLYP [compound 119] | <90 | <90 | <90 | <90
FKVQNQHGQVVKIFHH [compound 89] | <90 | <90 | <90 | <90
KRIVARIKAFLR [compound 130] | <90 | <90 | 100.00 | <90
VRLRIRVRVIRK [compound 118] | 100.00 | 100.00 | 100.00 | 100.00
AKRLKKLAKKIWKWK [compound 92] | <90 | 99.87 | 99.93 | <90
GIKFFLKKLKKHI [compound 115] | 100.00 | <90 | <90 | <90
KWKLFKKIPLAKKF [compound 100] | <90 | <90 | <90 | <90
LKKWWKTSKGLLGGLLGKVTSVIK [compound 34] | 100.00 | 100.00 | 100.00 | 100.00
DCLSGRYKGPCAVWDNETCRRVCKEEGRSSGHCSPSLKCWCEGC (disulfide 2-44, 11-33, 19-39, 23-41) [compound 145] | – | <90 | <90 | –
GFWGKLWKPVKKAI [compound 107] | <90 | <90 | <90 | <90
FPFLKLSLKIPKSAIKSAIKRL [compound 1] | <90 | <90 | <90 | <90
ALWFTMLKKLGTMALHAGKAALGAAANTISQGTQ [compound 9] | 100.00 | 99.90 | 91.75 | <90
FKKLKKLFKKILKLK [compound 95] | <90 | 99.80 | 100.00 | <90
MQFITDLIKKAVDFIKGLFGNK [compound 43] | <90 | <90 | <90 | 94.72
KKKKKKAAAFAAAAAFAAWAAFAAA [compound 51] | <90 | <90 | <90 | <90
CC[C@H](C)[C@H](NC(=O)CNC(=O)[C@@H]1CCCN1C(=O)CNC(=O)[C@H](CC(C)C)NC(=O)[C@H](CC(N)=O)NC(=O)[C@H](C)NC(=O)[C@H](Cc1ccccc1)NC(=O)[C@H](CC(N)=O)NC(=O)[C@H](C)NC(=O)[C@H](CCCNC(=N)N)NC(=O)[C@H](Cc1ccccc1)NC(=O)[C@H](C)NC(=O)[C@@H](NC(=O)[C@H](CCCNC(=N)N)NC(=O)[C@H](Cc1c[nH]c2ccccc12)NC(=O)[C@H](Cc1ccc(O)cc1)NC(=O)[C@H](CC(=O)O)NC(=O)[C@H](C)NC(=O)[C@H](CC(C)C)NC(=O)CN)[C@@H](C)O)C(=O)N[C@@H](CCCNC(=N)N)C(=O)N[C@@H](CS)C(=O)N[C@@H](CCCCN)C(=O)N[C@@H](CO)C(=O)N[C@@H](C)C(=O)N[C@@H](CCCNC(=N)N)C(=O)N[C@@H](CS)C(=O)O [compound 18] (H-GLADYWRTAFRANFANLGPGIRCKSARC-OH; N-terminus and C-terminus assumed) | – | <90 | <90 | –
C[C@@H](O)[C@H](NC(=O)[C@H](CS)NC(=O)[C@@H](N)Cc1c[nH]c2ccccc12)C(=O)N[C@@H](Cc1c[nH]c2ccccc12)C(=O)N[C@@H](CCCCN)C(=O)NCC(=O)N[C@@H](CCC(N)=O)C(=O)N1CCC[C@H]1C(=O)N[C@@H](CS)C(=O)N[C@@H](Cc1c[nH]c2ccccc12)C(=O)O [compound 3] (H-WCTWKGQPCW-OH; N-terminus and C-terminus assumed) | – | <90 | <90 | –

Source: patent US20250381242A1 (INVAIO SCIENCES, INC., priority 2024, published 2025)
